Experimental data taken from US20040014215A1, “Synchronised arabidopsis cell suspensions and uses thereof” (priority 2000, published 2004).

How the values were obtained:
histone H4 = test: Northern expression analysis after aphidicolin synchronisation of MM1 (maximum signal = 100%); format: cell-based, Arabidopsis thaliana
Protocol: (§1) was analysed following the expression level of known cell cycle regulated genes. Synchronisation was performed as described in Example 2A, with the exception that two 7-day old cultures of the weekly sub-cultured cell suspension (210 ml each) were combined. 40 ml of combined culture was transferred into 200 ml of fresh MSS-medium in each of 10 separate flasks. After incubation for 24 hrs under conditions as described in Example 1, in the presence of 4.16 μg/ml aphidicolin, cells from 5 pooled flasks were washed through a nylon net (mesh size 47 μm) and washed with 2 litre MSS medium and shaken vigorously to remove the aphidicolin. Cells were transferred into a 50 ml plastic tube, washed again with MSS medium and centrifuged at 2500 rpm for 1 min (1075 rcf). Cells were resuspended and combined with the cells from the other 5 flasks similarly washed in a total volume of 300 ml fresh MSS-medium. 30 ml of this cell suspension was then added to 200 ml fresh MSS-medium in each of 10 separate flasks.
(§2) 1) 25 ml for Northern blot (transferred into 50 ml plastic tube, centrifuged at 2500 rpm for 1 min, the supernatant discarded, and the cell pellet shock-frozen in liquid nitrogen before storing in −80° C. freezer)
(§3) Samples were collected at the time point indicated (time of removal of aphidicolin equals time point 0 hrs) and were analysed for expression of the following genes by Northern blot:
histone H4 (ID/Accession no. ATH4 GB/M17133)
(§4) For each probe the maximum hybridisation signal obtained was defined as 100%.

alfalfa-cell suspension = conditions: blocked with aphidicolin for 36 h and released; cited from earlier work
CycD2 = test: Northern expression analysis after aphidicolin synchronisation of MM1 (maximum signal = 100%); format: cell-based, Arabidopsis thaliana
Protocol: as §1, §2, §3, §4

[1] = system: Arabidopsis cell suspension culture MM1; test: Aphidicolin block/release of MM1: mitotic index (DAPI) and labelling index (BrdU); format: cell-based, Arabidopsis thaliana
Protocol: Arabidopsis cell suspension culture MM1 (DSM 13563) was used for synchronisation experiments. The suspension culture was maintained by sub-culturing weekly 10 ml into 200 ml of fresh MSS-medium (MS-salt, 3% sucrose, 0.5 mg/l NAA, 0.05 mg/l kinetin) which is cultured in 500 ml narrow neck Erlenmeyer flasks, of which the opening is covered with double layer of aluminium foil and loosely covered with Saran wrap and which are placed on a GYROTORY® Shaker (New Brunswick Scientific). The cell suspension culture was grown under continuous light conditions (24 hrs a day); Philips lamps were used with the specification TLD HF 50W/840; light level is in average 1300 Lux and the cell suspension culture is rotated at 120 rpm at a temperature varying between 23-25° C. To arrest cells reversibly in late G1/early S-phase, cells were blocked with aphidicolin according to Nagata et al. 1992 (with slight modifications), 40 ml of an early stationary phase cell suspension culture was subcultured into 200 ml MSS-medium, 4.16 μg/ml aphidicolin was added to block cells at the end of G1/early S-phase, and the culture was incubated at 23° C., 120 rpm in the conditions as described above for MM1, for a period of 21.5 hrs. To remove aphidicolin, cells were washed through a nylon mesh (mesh size 47 μm) with 11 MSS-medium by vigorously shaking and resuspended in MSS-medium. The cells were vigorously shaken, for a washing time of about 14 min, and then centrifuged at 150Orpm for 1 min (387 rcf) with the brake switched off.

[2] = 0 hrs after aphidicolin removal
[3] = 2 hrs after aphidicolin removal
[4] = 4 hrs after aphidicolin removal
[5] = 6 hrs after aphidicolin removal
[6] = 8 hrs after aphidicolin removal
[7] = 10 hrs after aphidicolin removal
[8] = 12 hrs after aphidicolin removal
[9] = 14 hrs after aphidicolin removal
[10] = 16 hrs after aphidicolin removal
[11] = 18 hrs after aphidicolin removal
[12] = 20 hrs after aphidicolin removal
[13] = 22 hrs after aphidicolin removal
[14] = 24 hrs after aphidicolin removal
[15] = 26 hrs after aphidicolin removal
[16] = 28 hrs after aphidicolin removal
[17] = 30 hrs after aphidicolin removal
[18] = range seen on blocking the cells with aphidicolin
[19] = this experiment (Example 2A), after release from aphidicolin block

C[C@@]1(CO)[C@H](O)CC[C@@]2(C)[C@H]1CC[C@H]1C[C@@H]3C[C@@]12CC[C@]3(O)CO [aphidicolin]
histone H4 % (histone H4; [2]): 33.81% | histone H4 Band intensity (histone H4; [2]): 1029 | histone H4 % (histone H4; [3]): 100.0% | histone H4 Band intensity (histone H4; [3]): 3046 | histone H4 % (histone H4; [4]): 84.73% | histone H4 Band intensity (histone H4; [4]): 2580 | histone H4 % (histone H4; [5]): 58.91% | histone H4 Band intensity (histone H4; [5]): 1794 | histone H4 % (histone H4; [6]): 32.42% | histone H4 Band intensity (histone H4; [6]): 987 | histone H4 % (histone H4; [7]): 38.70% | histone H4 Band intensity (histone H4; [7]): 1178 | histone H4 % (histone H4; [8]): 28.53% | histone H4 Band intensity (histone H4; [8]): 868 | histone H4 % (histone H4; [9]): 22.81% | histone H4 Band intensity (histone H4; [9]): 694 | histone H4 % (histone H4; [10]): 12.75% | histone H4 Band intensity (histone H4; [10]): 388 | histone H4 % (histone H4; [11]): 11.26% | histone H4 Band intensity (histone H4; [11]): 343 | histone H4 % (histone H4; [12]): 19.43% | histone H4 Band intensity (histone H4; [12]): 591 | histone H4 % (histone H4; [13]): 17.55% | histone H4 Band intensity (histone H4; [13]): 534 | histone H4 % (histone H4; [14]): 17.77% | histone H4 Band intensity (histone H4; [14]): 541 | histone H4 % (histone H4; [15]): 23.04% | histone H4 Band intensity (histone H4; [15]): 701 | histone H4 % (histone H4; [16]): 14.35% | histone H4 Band intensity (histone H4; [16]): 437 | peak mitotic index (alfalfa-cell suspension): up to 40% | CycD2 % (CycD2; [2]): 11.06% | CycD2 Band intensity (CycD2; [2]): 588 | CycD2 % (CycD2; [3]): 18.49% | CycD2 Band intensity (CycD2; [3]): 984 | CycD2 % (CycD2; [4]): 14.53% | CycD2 Band intensity (CycD2; [4]): 773 | CycD2 % (CycD2; [5]): 20.73% | CycD2 Band intensity (CycD2; [5]): 1103 | CycD2 % (CycD2; [6]): 21.64% | CycD2 Band intensity (CycD2; [6]): 1151 | CycD2 % (CycD2; [7]): 32.02% | CycD2 Band intensity (CycD2; [7]): 1704 | CycD2 % (CycD2; [8]): 51.04% | CycD2 Band intensity (CycD2; [8]): 2716 | CycD2 % (CycD2; [9]): 77.14% | CycD2 Band intensity (CycD2; [9]): 4105 | CycD2 % (CycD2; [10]): 66.51% | CycD2 Band intensity (CycD2; [10]): 3539 | CycD2 % (CycD2; [11]): 100.0% | CycD2 Band intensity (CycD2; [11]): 5322 | CycD2 % (CycD2; [12]): 83.89% | CycD2 Band intensity (CycD2; [12]): 4464 | CycD2 % (CycD2; [13]): 46.62% | CycD2 Band intensity (CycD2; [13]): 2481 | CycD2 % (CycD2; [14]): 64.44% | CycD2 Band intensity (CycD2; [14]): 3429 | CycD2 % (CycD2; [15]): 68.56% | CycD2 Band intensity (CycD2; [15]): 3648 | CycD2 % (CycD2; [16]): 69.98% | CycD2 Band intensity (CycD2; [16]): 3724 | CycD2 % (CycD2; [17]): 62.66% | CycD2 Band intensity (CycD2; [17]): 3334 | Labelling Index (%) ([1]; 1 h after aphidicolin removal): 23.21% | Mitotic index (%) ([1]; 1 h after aphidicolin removal): 0% | Labelling Index (%) ([1]; 2 h after aphidicolin removal): 41.3% | Mitotic index (%) ([1]; 2 h after aphidicolin removal): 0.5% | Labelling Index (%) ([1]; 3 h after aphidicolin removal): 65.06% | Mitotic index (%) ([1]; 3 h after aphidicolin removal): 0.58% | Labelling Index (%) ([1]; 4 h after aphidicolin removal): 64.13% | Mitotic index (%) ([1]; 4 h after aphidicolin removal): 0.5% | Labelling Index (%) ([1]; 5 h after aphidicolin removal): 50% | Mitotic index (%) ([1]; 5 h after aphidicolin removal): 0.68% | Labelling Index (%) ([1]; 6 h after aphidicolin removal): 18.43% | Mitotic index (%) ([1]; 6 h after aphidicolin removal): 1.88% | Labelling Index (%) ([1]; 7 h after aphidicolin removal): 13.67% | Mitotic index (%) ([1]; 7 h after aphidicolin removal): 2.37% | Labelling Index (%) ([1]; 8 h after aphidicolin removal): 10.32% | Mitotic index (%) ([1]; 8 h after aphidicolin removal): 2.04% | Labelling Index (%) ([1]; 9 h after aphidicolin removal): 8.1% | Mitotic index (%) ([1]; 9 h after aphidicolin removal): 2.63% | Labelling Index (%) ([1]; 10 h after aphidicolin removal): 7.86% | Mitotic index (%) ([1]; 10 h after aphidicolin removal): 2.84% | Labelling Index (%) ([1]; 11 h after aphidicolin removal): 7.65% | Mitotic index (%) ([1]; 11 h after aphidicolin removal): 5.06% | Labelling Index (%) ([1]; 12 h after aphidicolin removal): 6.8% | Mitotic index (%) ([1]; 12 h after aphidicolin removal): 7.96% | Labelling Index (%) ([1]; 13 h after aphidicolin removal): 3.08% | Mitotic index (%) ([1]; 13 h after aphidicolin removal): 11.67% | Labelling Index (%) ([1]; 14 h after aphidicolin removal): 5.05% | Mitotic index (%) ([1]; 14 h after aphidicolin removal): 9.03% | Labelling Index (%) ([1]; 15 h after aphidicolin removal): 3.68% | Mitotic index (%) ([1]; 15 h after aphidicolin removal): 7.86% | Labelling Index (%) ([1]; 16 h after aphidicolin removal): 4.09% | Mitotic index (%) ([1]; 16 h after aphidicolin removal): 5% | Labelling Index (%) ([1]; 17 h after aphidicolin removal): 9.46% | Mitotic index (%) ([1]; 17 h after aphidicolin removal): 2.96% | Labelling Index (%) ([1]; 18 h after aphidicolin removal): 12.96% | Mitotic index (%) ([1]; 18 h after aphidicolin removal): 3.24% | Labelling Index (%) ([1]; 19 h after aphidicolin removal): 10.91% | Mitotic index (%) ([1]; 19 h after aphidicolin removal): 2.06% | MI peak [1, 18]: 10 to 15% | labelling index [1, 18]: 50-65% | LI peak [1, 19]: 65% | MI peak [1, 19]: 12%
